Measured values reported in patent publication US20040039019A1, “Selected anthranilaminde pyridinamides and their use as pharmaceutical agents” (Schering AG, priority 2002, published 2004).

What was measured:
VEGFR II (KDR) = VEGFR II (KDR) (Homo sapiens, UniProt P35968); assay: Inhibition of the KDR kinase activity; assay type: biochemical; conditions: poly-(Glu4Tyr) substrate, 33P-ATP, 10 minutes at room temperature
Protocol: Solutions Required for the Tests
Stock solution A: 3 mmol of ATP in water, pH 7.0 (−70° C.)
Stock solution B: g-33P-ATP 1 mCi/100 μl
Stock solution C: poly-(Glu4Tyr) 10 mg/ml in water
Substrate solvent: 10 mmol of DTT, 10 mmol of manganese chloride, 100 mmol of magnesium chloride
Enzyme solution: 120 mmol of tris/HCl, pH 7.5, 10 μM of sodium vanadium oxide
Inhibition of the KDR- and FLT-1 Kinase Activity in the Presence of the Compounds According to the Invention
In a microtiter plate (without protein binding) that tapers to a point, 10 μl of substrate mix (10 μl of volume of ATP stock solution A +25 μCi of g-33P-ATP (about 2.5 μl of stock solution B)+30 μl of poly-(Glu4Tyr) stock solution C+1.21 ml of substrate solvent), 10 μl of inhibitor solution (substances corresponding to the dilutions, 3% DMSO in substrate solvent as a control) and 10 μl of enzyme solution (11.25 μg of enzyme stock solution (KDR or FLT-1 kinase) are added at 4° C. in 1.25 ml of enzyme solution (dilute). It is thoroughly mixed and incubated for 10 minutes at room temperature. Then, 10 μl of stop solution (250 mmol of EDTA, pH 7.0) is added, mixed, and 10 μl of the solution is transferred to a P 81 phosphocellulose filter. Then, it is washed several times in 0.1 M phosphoric acid. The filter paper is dried, coated with Meltilex and measured in a microbeta counter. […]

[1] = target: T1, human Cytochrome P 450 1A2 (Homo sapiens, UniProt P05177); assay: Cytochrome P450 inhibition, isoenzyme 1A2; assay type: in vitro ADME; conditions: baculovirus/insect cell-expressed human isoenzyme 1A2; read-out: Inhibition of the Cytochrome P450 Isoenzymes (IC50) 1A2
T1 construct: host or cells: baculovirus/insect cells
T1 sequence (P05177 1-516): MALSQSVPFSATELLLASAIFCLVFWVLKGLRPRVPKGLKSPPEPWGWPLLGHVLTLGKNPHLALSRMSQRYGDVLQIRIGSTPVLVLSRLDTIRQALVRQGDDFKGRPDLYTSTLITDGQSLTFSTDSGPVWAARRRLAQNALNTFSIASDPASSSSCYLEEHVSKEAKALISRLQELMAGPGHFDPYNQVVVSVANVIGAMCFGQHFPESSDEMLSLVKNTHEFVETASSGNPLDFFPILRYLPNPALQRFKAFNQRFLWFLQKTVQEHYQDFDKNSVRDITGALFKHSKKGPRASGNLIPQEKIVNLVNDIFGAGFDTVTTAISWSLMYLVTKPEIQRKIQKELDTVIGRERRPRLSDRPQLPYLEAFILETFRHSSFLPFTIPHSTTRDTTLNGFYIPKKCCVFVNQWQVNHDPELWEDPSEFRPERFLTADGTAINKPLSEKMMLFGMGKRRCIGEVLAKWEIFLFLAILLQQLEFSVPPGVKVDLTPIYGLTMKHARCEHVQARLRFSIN
Protocol: (§1) Cytochrome P450 Inhibition
(§2) The Cytochrome P450 inhibition was performed according to the publication of Crespi et al. (Anal. Biochem., 248, 188-190 (1997)) with use of baculovirus/insect cell-expressed, human Cytochrome P 450 isoenzymes (1A2, 2C9, 2C19, 2D6, 3A4).

[2] = target: T2, human Cytochrome P 450 2C9 (Homo sapiens, UniProt P11712); assay: Cytochrome P450 inhibition, isoenzyme 2C9; assay type: in vitro ADME; conditions: baculovirus/insect cell-expressed human isoenzyme 2C9; read-out: Inhibition of the Cytochrome P450 Isoenzymes (IC50) 2C9
T2 construct: host or cells: baculovirus/insect cells
Protocol: as §1, §2

[3] = target: T3, human Cytochrome P 450 2C19 (Homo sapiens, UniProt P33261); assay: Cytochrome P450 inhibition, isoenzyme 2C19; assay type: in vitro ADME; conditions: baculovirus/insect cell-expressed human isoenzyme 2C19; read-out: Inhibition of the Cytochrome P450 Isoenzymes (IC50) 2C19
T3 construct: host or cells: baculovirus/insect cells
Protocol: as §1, §2

[4] = target: T4, human Cytochrome P 450 2D6 (Homo sapiens, UniProt P10635); assay: Cytochrome P450 inhibition, isoenzyme 2D6; assay type: in vitro ADME; conditions: baculovirus/insect cell-expressed human isoenzyme 2D6; read-out: Inhibition of the Cytochrome P450 Isoenzymes (IC50) 2D6
T4 construct: host or cells: baculovirus/insect cells
Protocol: as §1, §2

[5] = target: T5, human Cytochrome P 450 3A4 (Homo sapiens, UniProt P08684); assay: Cytochrome P450 inhibition, isoenzyme 3A4; assay type: in vitro ADME; conditions: baculovirus/insect cell-expressed human isoenzyme 3A4; read-out: Inhibition of the Cytochrome P450 Isoenzymes (IC50) 3A4
T5 construct: host or cells: baculovirus/insect cells
Protocol: as §1, §2

T2 sequence (P11712 whole entry): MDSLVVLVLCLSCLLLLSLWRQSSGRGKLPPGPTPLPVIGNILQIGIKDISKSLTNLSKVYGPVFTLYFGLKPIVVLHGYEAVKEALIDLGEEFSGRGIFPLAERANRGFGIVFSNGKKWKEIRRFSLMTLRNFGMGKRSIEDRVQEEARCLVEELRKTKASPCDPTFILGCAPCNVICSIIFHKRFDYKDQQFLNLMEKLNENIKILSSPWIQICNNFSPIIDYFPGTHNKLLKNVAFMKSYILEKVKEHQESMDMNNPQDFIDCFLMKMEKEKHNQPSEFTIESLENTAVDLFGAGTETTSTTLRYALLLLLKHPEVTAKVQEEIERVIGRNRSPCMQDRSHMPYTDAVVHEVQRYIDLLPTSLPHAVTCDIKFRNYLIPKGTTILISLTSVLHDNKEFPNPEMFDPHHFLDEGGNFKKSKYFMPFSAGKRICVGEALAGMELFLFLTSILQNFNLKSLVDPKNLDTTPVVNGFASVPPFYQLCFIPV
T3 sequence (P33261 whole entry): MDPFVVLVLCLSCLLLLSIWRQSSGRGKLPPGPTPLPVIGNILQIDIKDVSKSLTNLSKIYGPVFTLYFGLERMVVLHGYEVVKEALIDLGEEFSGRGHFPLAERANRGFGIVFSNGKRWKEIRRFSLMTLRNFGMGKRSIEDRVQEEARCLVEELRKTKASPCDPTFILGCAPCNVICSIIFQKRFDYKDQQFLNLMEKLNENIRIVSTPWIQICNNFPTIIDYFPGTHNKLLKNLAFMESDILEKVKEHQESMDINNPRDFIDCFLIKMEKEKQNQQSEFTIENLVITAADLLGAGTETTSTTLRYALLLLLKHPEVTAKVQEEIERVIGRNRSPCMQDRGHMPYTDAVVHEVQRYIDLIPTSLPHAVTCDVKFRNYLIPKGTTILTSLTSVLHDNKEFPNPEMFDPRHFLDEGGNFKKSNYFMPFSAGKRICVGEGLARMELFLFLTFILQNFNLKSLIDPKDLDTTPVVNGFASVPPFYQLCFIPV
VEGFR II (KDR), sequence (P35968 20-1356, species assumed): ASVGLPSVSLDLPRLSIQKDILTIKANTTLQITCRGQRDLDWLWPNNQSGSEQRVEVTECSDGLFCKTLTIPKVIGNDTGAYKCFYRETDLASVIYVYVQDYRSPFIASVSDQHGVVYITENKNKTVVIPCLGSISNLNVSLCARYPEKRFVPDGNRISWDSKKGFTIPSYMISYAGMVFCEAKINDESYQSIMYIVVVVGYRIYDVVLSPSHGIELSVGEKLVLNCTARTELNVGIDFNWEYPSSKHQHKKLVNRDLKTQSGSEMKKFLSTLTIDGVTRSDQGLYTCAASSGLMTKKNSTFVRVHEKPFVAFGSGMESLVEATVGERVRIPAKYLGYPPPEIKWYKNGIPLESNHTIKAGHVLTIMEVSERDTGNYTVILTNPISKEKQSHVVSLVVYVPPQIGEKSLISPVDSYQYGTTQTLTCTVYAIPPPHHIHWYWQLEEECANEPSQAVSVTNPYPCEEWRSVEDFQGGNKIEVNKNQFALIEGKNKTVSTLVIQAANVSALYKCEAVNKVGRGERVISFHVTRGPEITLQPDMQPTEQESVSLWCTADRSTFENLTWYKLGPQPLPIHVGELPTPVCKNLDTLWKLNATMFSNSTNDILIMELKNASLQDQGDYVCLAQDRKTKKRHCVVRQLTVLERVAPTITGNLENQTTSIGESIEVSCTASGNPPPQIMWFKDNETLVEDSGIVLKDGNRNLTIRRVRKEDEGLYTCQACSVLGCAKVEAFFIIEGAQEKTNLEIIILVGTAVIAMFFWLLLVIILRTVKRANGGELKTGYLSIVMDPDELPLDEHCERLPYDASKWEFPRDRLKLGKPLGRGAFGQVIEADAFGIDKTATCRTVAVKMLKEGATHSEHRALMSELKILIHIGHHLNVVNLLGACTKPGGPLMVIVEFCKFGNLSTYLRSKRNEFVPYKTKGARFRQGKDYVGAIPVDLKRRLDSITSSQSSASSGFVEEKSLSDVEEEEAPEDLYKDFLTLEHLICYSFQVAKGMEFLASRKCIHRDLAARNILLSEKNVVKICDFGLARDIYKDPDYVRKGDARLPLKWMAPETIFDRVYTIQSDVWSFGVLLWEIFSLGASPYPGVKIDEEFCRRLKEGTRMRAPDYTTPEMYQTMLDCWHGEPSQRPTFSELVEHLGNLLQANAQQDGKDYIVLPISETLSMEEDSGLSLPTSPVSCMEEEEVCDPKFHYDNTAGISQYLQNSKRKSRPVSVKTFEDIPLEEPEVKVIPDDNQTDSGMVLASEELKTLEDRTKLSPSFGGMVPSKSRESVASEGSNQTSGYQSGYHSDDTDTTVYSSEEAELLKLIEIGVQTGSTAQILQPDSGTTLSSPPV
T5 sequence (P08684 whole entry): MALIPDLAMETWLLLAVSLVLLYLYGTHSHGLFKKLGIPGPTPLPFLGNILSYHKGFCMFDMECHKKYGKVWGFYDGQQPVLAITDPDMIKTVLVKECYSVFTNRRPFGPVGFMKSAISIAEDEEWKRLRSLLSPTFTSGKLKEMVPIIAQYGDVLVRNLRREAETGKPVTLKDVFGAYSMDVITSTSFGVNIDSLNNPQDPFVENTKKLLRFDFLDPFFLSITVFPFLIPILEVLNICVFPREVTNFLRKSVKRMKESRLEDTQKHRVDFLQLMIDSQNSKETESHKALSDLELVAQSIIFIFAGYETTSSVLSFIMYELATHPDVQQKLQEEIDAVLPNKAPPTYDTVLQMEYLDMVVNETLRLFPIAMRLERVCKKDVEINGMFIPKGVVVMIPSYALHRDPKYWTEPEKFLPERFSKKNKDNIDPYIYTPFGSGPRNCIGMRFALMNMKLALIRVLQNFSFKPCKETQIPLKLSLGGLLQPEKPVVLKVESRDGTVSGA
T4 sequence (P10635 whole entry): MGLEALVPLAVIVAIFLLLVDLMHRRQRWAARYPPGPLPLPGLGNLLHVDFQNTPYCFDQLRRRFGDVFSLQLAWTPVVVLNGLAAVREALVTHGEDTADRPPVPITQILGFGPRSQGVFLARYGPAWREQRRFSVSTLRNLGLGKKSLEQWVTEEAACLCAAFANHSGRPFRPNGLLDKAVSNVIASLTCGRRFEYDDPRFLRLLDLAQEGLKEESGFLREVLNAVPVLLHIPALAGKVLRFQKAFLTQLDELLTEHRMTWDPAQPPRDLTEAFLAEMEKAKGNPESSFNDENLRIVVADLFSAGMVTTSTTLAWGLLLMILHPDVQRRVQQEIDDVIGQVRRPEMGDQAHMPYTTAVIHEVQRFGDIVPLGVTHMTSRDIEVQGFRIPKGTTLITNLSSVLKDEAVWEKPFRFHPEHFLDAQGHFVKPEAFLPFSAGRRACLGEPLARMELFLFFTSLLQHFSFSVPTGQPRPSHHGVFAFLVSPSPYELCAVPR

IC50 (VEGFR II (KDR)): 50 nM | IC50 [1]: > 30 µM | IC50 [2]: 23 µM | IC50 [3]: > 30 µM | IC50 [4]: > 30 µM | IC50 [5]: > 30 µM
SMILES: O=C1Cc2ccc(NC(=O)c3ccccc3NCc3ccc(=O)[nH]c3)cc2N1 [Example 1.0, N-(2-Oxo-2,3-dihydro-1H-indol-6-yl)-2-[(6-oxo-1,6-dihydro-pyridin-3-ylmethyl)-amino]-benzamide]
